Measurements taken from ChEMBL document CHEMBL5325400 (Eur J Med Chem, 2023).
The source made the active and inactive calls. No cut-off for these calls is given here.

Tests used:
B16-F10 [1] = assay: Antimigratory activity against mouse B16-F10 cells assessed as inhibition of cell migration at 40 nM and incubated for 12 hrs by scratch wound healing assay (reference value: 81.9 +/- 0.64%); type: functional; design: scale not given: the % may be the effect or the level left
[2] = Toxicity in BALB/c mouse assessed as drug tolerability at 10 mg/kg, ip; type: organism-based; conditions: in vivo
A2780 = assay: cells; conditions: Homo sapiens, A2780, 48 h
Description: Antiproliferative activity against human A2780 cells assessed as inhibition of cell growth incubated for 48 hrs by MTT assay

A549 [3] = assay: Induction of cell cycle arrest in human A549 cells assessed as accumulation at G2 phase at 10 nM incubated for 24 hrs by PI staining based flow cytometry (Rvb= 12.49%); type: functional
MDA-MB-231 = assay: Antiproliferative activity against human MDA-MB-231 cells assessed as inhibition of cell growth measured after 48 hrs by MTT assay; type: functional, cell-based; conditions: MDA-MB-231, 48 h
A549 [4] = assay: Induction of cell cycle arrest in human A549 cells assessed as accumulation at G2 phase at 40 nM incubated for 24 hrs by PI staining based flow cytometry (Rvb= 12.49%); type: functional
A549 [5] = assay: Residual cell migration in human A549 cells at 5 nM incubated for 12 hrs by crystal violet staining based transwell assay; conditions: A549, 12 h
A549 [6] = assay: Inhibition of cell migration in human A549 cells assessed as total number of cells migrated at 10 nM incubated for 12 hrs by crystal violet staining based transwell assay (reference value: 724 +/- 16); type: functional
A549 [7] = assay: Induction of cell cycle arrest in human A549 cells assessed as accumulation at S phase at 20 nM incubated for 24 hrs by PI staining based flow cytometry (Rvb= 20.94%); type: functional
[8] = Toxicity in BALB/c mouse xenografted with human A549 cells assessed as change in body weight at 5 mg/kg, ip administered every other day for 25 days; type: organism-based; conditions: in vivo, 600 h, time 25 day
A549 [9] = assay: Antiproliferative activity against human A549 cells expressing lentivirus RNAi VTI-96658 assessed as inhibition of cell growth measured after 48 hrs by MTT assay; type: functional, cell-based
A549 [10] = assay: Inhibition of cell migration in human A549 cells assessed as total number of cells migrated at 5 nM incubated for 12 hrs by crystal violet staining based transwell assay (reference value: 724 +/- 16); type: functional
A549 [11] = assay: Induction of cell cycle arrest in human A549 cells assessed as accumulation at G1 phase at 20 nM incubated for 24 hrs by PI staining based flow cytometry (Rvb= 65.68%); type: functional
A549 [12] = assay: Antitumor activity against human A549 cells xenografted in BALB/c mouse assessed as tumor growth inhibition at 10 mg/kg, ip administered every other day for 25 days; type: functional; conditions: A549, 600 h, time 25 day, read-out: TGI
A549 [13] = assay: Antimigratory activity against human A549 cells assessed as inhibition of cell migration at 40 nM and incubated for 12 hrs by scratch wound healing assay (reference value: 29.5 +/- 1.34%); type: functional; design: scale not given: the % may be the effect or the level left
A549 [14] = assay: Induction of apoptosis in human A549 cells assessed as viable cells at 10 nM incubated for 24 hrs by annexin V-FITC/propidium iodide staining based flow cytometry analysis (reference value: 96.44%); type: functional; conditions: read-out: Activity
B16-F10 [15] = assay: Antiproliferative activity against mouse B16-F10 cells assessed as inhibition of cell growth measured after 48 hrs by MTT assay; type: functional, cell-based; conditions: B16-F10, 48 h
A549 [16] = assay: Induction of apoptosis in human A549 cells assessed as upregulation of Bad protein at 10 to 40 nM measured after 48 hrs by Western blot analysis; type: functional, cell-based; conditions: dose 10-40 nM
[17] = AUC(0 to t) in Sprague-Dawley rat at 1 mg/kg, iv by LC-MS analysis; type: ADME, organism-based; design: dose 1 mg/kg, route iv; conditions: in vivo
B16-F10 [18] = assay: Inhibition of cell migration in mouse B16-F10 cells assessed as total number of cells migrated at 10 nM incubated for 12 hrs by crystal violet staining based transwell assay (reference value: 692 +/- 11); type: functional
A549 [19] = assay: Induction of apoptosis in human A549 cells assessed as necrotic cells at 20 nM incubated for 24 hrs by annexin V-FITC/propidium iodide staining based flow cytometry analysis (reference value: 2.36%); type: functional
A549 [20] = assay: Antitumor activity against human A549 cells xenografted in BALB/c mouse assessed as tumor weight at 10 mg/kg, ip administered every other day for 25 days; type: functional, organism-based; conditions: time 25.0 day
B16-F10 [21] = assay: Antimigratory activity against mouse B16-F10 cells assessed as inhibition of cell migration at 10 nM and incubated for 12 hrs by scratch wound healing assay (reference value: 81.9 +/- 0.64%); type: functional; design: scale not given: the % may be the effect or the level left
A549 [22] = assay: Antiproliferative activity against human A549 cells expressing lentivirus RNAi VTI-96659 assessed as inhibition of cell growth measured after 48 hrs by MTT assay; type: functional, cell-based
A549 [23] = assay: Antitumor activity against human A549 cells xenografted in BALB/c mouse assessed as downregulation of Bcl-2 expression in tumor at 10 mg/kg, ip administered every other day for 25 days by Western blotting analysis; type: functional, organism-based; conditions: time 25.0 day
[24] = Half life in Sprague-Dawley rat at 1 mg/kg, iv by LC-MS analysis; type: ADME, organism-based; conditions: in vivo
A549 [25] = assay: Antitumor activity against human A549 cells xenografted in BALB/c mouse assessed as tumor growth inhibition at 5 mg/kg, ip administered every other day for 25 days; type: functional; conditions: A549, 600 h, time 25 day, read-out: TGI
A549 [26] = assay: Residual cell migration in human A549 cells at 40 nM incubated for 12 hrs by crystal violet staining based transwell assay; conditions: A549, 12 h
A549 [27] = assay: Induction of apoptosis in human A549 cells assessed as necrotic cells at 40 nM incubated for 24 hrs by annexin V-FITC/propidium iodide staining based flow cytometry analysis (reference value: 2.36%); type: functional
[28] = Toxicity in BALB/c nude mouse xenografted with human A549 cells assessed as pathological changes in liver at 5 to 10 mg/kg, ip administered every other day for 25 days by hematoxylin and eosin staining based microscopic analysis; type: organism-based; conditions: in vivo, 600 h, dose 5-10 mg/kg, time 25 day
A549 [29] = assay: Antitumor activity against human A549 cells xenografted in BALB/c mouse assessed as upregulation of cleaved PARP expression in tumor at 10 mg/kg, ip administered every other day for 25 days by Western blotting analysis; type: functional, organism-based; conditions: time 25.0 day
A549 [30] = assay: Induction of cell cycle arrest in human A549 cells assessed as accumulation at G1 phase at 10 nM incubated for 24 hrs by PI staining based flow cytometry (Rvb= 65.68%); type: functional
A549 [31] = assay: Induction of apoptosis in human A549 cells assessed as downregulation of Bcl-2 protein at 10 to 40 nM measured after 48 hrs by Western blot analysis; type: functional, cell-based; conditions: dose 10-40 nM
A549 [32] = assay: Induction of apoptosis in human A549 cells assessed as late apoptotic cells at 20 nM incubated for 24 hrs by annexin V-FITC/propidium iodide staining based flow cytometry analysis (reference value: 0.37%); type: functional
A549 [33] = assay: Antiproliferative activity against human A549 cells assessed as inhibition of cell growth measured after 48 hrs by MTT assay; type: functional, cell-based; conditions: A549, 48 h
A549 [34] = assay: Inhibition of colony formation in human A549 cells at 20 nM incubated for 6 days by crystal violet staining based analysis; type: functional, cell-based; conditions: time 6.0 day

Question: With `COc1cccc(Nc2cc(Nc3cccc(NC(=O)C4CC4)c3)ncn2)c1` as the molecule, how does the Activity (B16-F10 [1]) read?
Answer: 29.1%

Question: What about the Activity [2] of the same molecule?
Answer: Non-Toxic

Question: What about the IC50 (A2780) of the same molecule?
Answer: 16 nM

Question: And the Activity (A549 [3])?
Answer: 23.37%

Question: What about the IC50 (MDA-MB-231) of the same molecule?
Answer: 4.4 nM

Question: And the Activity (A549 [4])?
Answer: 53.15%

Question: And the level, % of control at 0.005 µM (A549 [5])?
Answer: 91.5%

Question: What about the Activity (A549 [6]) of the same molecule?
Answer: 486

Question: And the Activity (A549 [7])?
Answer: 15.49%

Question: What about the Activity [8] of the same molecule?
Answer: Non-Toxic

Question: And the Activity (A549 [9])?
Answer: Active

Question: And the Activity (A549 [10])?
Answer: 635

Question: What about the Activity (A549 [11]) of the same molecule?
Answer: 48%

Question: And the inhibition in vivo at 10 mg/kg (A549 [12])?
Answer: 65.4%

Question: And the Activity (A549 [13])?
Answer: 6.1%

Question: And the viability at 0.01 µM (A549 [14])?
Answer: 82.2%

Question: What about the IC50 (B16-F10 [15]) of the same molecule?
Answer: 3.3 nM

Question: And the Activity (A549 [16])?
Answer: Active

Question: And the AUC(0-t) [17]?
Answer: 239 ng·h/mL

Question: And the Activity (B16-F10 [18])?
Answer: 510

Question: And the Activity (A549 [19])?
Answer: 6%

Question: And the Activity (A549 [20])?
Answer: Active

Question: And the Activity (B16-F10 [21])?
Answer: 49.9%

Question: And the Activity (A549 [22])?
Answer: Active

Question: What about the Activity (A549 [23]) of the same molecule?
Answer: Active

Question: What about the t1/2 [24] of the same molecule?
Answer: 13.2 min

Question: What about the inhibition in vivo at 5 mg/kg (A549 [25]) of the same molecule?
Answer: 39.1%

Question: What about the level, % of control at 0.04 µM (A549 [26]) of the same molecule?
Answer: 32.9%

Question: And the Activity (A549 [27])?
Answer: 5.78%

Question: What about the Activity [28] of the same molecule?
Answer: Non-Toxic

Question: And the Activity (A549 [29])?
Answer: Active

Question: And the Activity (A549 [30])?
Answer: 58.47%

Question: What about the Activity (A549 [31]) of the same molecule?
Answer: Active

Question: And the Activity (A549 [32])?
Answer: 16.31%

Question: What about the IC50 (A549 [33]) of the same molecule?
Answer: 1.1 nM

Question: And the inhibition (A549 [34])?
Answer: Active
